According to patent US6531512B1, “Method of treating cancer in patients having a deficiency in p53 tumor suppressor gene” (Health Research Inc., priority 1998, dated 2003):

What was measured:
[1] = test system: MALME-3M human melanoma cells; assay: Cell cycle distribution of MALME-3M cells by flow cytometry; assay type: cell-based
Protocol: MALME-3M cells were cultured as described in Example 1 and treated with 10 μM DENSPM as described in Example 2. Cell cycle arrest was monitored using a FACScan flow cytometry unit (Becton Dickinson, San Jose, Calif.) according to the method of Krishan (1975) J. Cell Biol. 66:[…]. Untreated MALME-3M cell cultures were used as controls.
Cell cycle arrest of serum synchronized MALME-3M cells was also monitored using flow cytometry. MALME-3M cells were synchronized in G0/G1 by replacing cell culture media containing 10% NuSerum (see Example 1) with media lacking NuSerum and incubating the cultures for 120 hours. The synchronized cells were released by the addition of 10% NuSerum (control culture) or 10% NuSerum plus 10 μM DENSPM. The cells were then grown continuously in the presence of serum (control) or DENSPM for up to 96 hours. The untreated cells (control) re-established an asynchronous profile (i.e., progressed through the cell cycle) by 60 hours.
The effect of DENSPM and spermine on cell growth was monitored using a Coulter Counter (see Example 2). The effect on cell cycle was monitored by flow cytometry as described in Example 3.

[2] = test system: SK-MEL-28 human melanoma cells; assay: Cell growth / apoptotic response of SK-MEL-28 cells (Coulter Counter, growth kinetics); assay type: cell-based; conditions: SK-MEL-28 (mt-p53), 10 μM, 48 hours

SMILES: CCNCCCNCCCNCCCNCC [DENSPM, N^1,N^11-diethylnorspermine]
- % Total Cells at 48 hours, G1 ([1]; MALME-3M (wt-p53), asynchronous, 10 μM, 48 hours): 88%
- cell cycle distribution of serum synchronized cells ([1]; MALME-3M synchronized in G0/G1, released with serum plus 10 μM, up to 96 hours): accumulated in the G1 and G2/M phases of the cycle but not in S phase
- onset of G1 arrest after treatment ([1]; MALME-3M, asynchronous, 10 μM): about 16 hours
- % Control Growth [2]: 0%
